We go through five compounds from BindingDB's records for doi:10.1021/jm101104z (University of Ljubljana, 2011).

For assay [1], the target named is 17beta-hydroxysteroid dehydrogenase type 1 (Homo sapiens). In words: Displacement of [3H]estrone human recombinant 17beta-HSD1 expressed in Escherichia coli BL21 (DE3)-RIL by competitive inhibition assay in presence of bacterial homogenate. For orientation: Loss of bound radioactivity is the signal in a displacement assay; it reports binding, not function.
Assay [2] shares this target. Briefly: Displacement of [3H]estrone human recombinant 17beta-HSD1 expressed in Escherichia coli BL21 (DE3)-RIL by scintillation counting in presence of bacterial homogenate.
Assay [3] has the same target. Briefly: Inhibition of 17beta-HSD1.

pIC50, pKi: −log10 of the molar value.

Broadly, the pKi is the Ki on a negative log10 scale, so that one unit is a factor of ten. One may read the pIC50 as the negative decadic logarithm of the IC50, by convention in mol/L. With `COc1ccc(-c2ccc3cc(C(C)=O)c(=O)oc3c2)cc1` [3-Acetyl-7-(4-methoxyphenyl)-2H-chromen-2-one], the pKi in assay [1] is 6.23. For the same compound, the pIC50 in assay [2] is 5.95. For `CC(=O)c1cc2ccc(-c3ccc(O)cc3)cc2oc1=O` [3-Acetyl-7-(4-hydroxyphenyl)-2H-chromen-2-one], in that order: 6.84 and 6.57.

`CC(=O)c1cc2ccc(-c3ccc(C)cc3)cc2oc1=O` [3-Acetyl-7-para-tolyl-2H-chromen-2-one]: the pKi in assay [1] is 6.23. In assay [2], the negative logarithm of the IC50 (pIC50) is 5.91. Compound `COc1cc(-c2nc3sc4c(O)cccc4c3c(=O)n2Cc2ccccc2)c(Br)c(OC)c1OC` [3-Benzyl-2-(2-bromo-3,4,5-trimethoxy-phenyl)-8-hydroxy-3H-benzo[4,5]thieno[2,3-d]pyrimidin-4-one] had a pIC50 in assay [3] of 8.30. Take `CC(=O)c1cc2ccc(OS(=O)(=O)C(F)(F)F)cc2oc1=O` [3-Acetyl-2-oxo-2H-chromen-7-yl trifluoromethanesulfonate]: the pKi in assay [1] is 6.76. In addition, the pIC50 in assay [2] was 6.44.
